Here are results for ten compounds from patent US12030903B2, “Antiviral compounds” (Gilead Sciences, Inc., priority 2020, dated 2024).

A word on the EC50: it is the concentration needed to bring the measured effect to its halfway point. As a reminder, the CC50 is the concentration giving 50% cytotoxicity.

Series [1] deals with Dengue serotype 2 New Guinea C (NGC) strain. Description: DENV-2 Huh-7 EC50 (qPCR of viral RNA in infected Huh7 cells). The conditions noted are these: Dengue virus, DENV2, Huh-7, Huh7 cells infected with Dengue serotype 2 NGC, MOI=0.1, 48 hours. The format is cell-based. The procedure: Huh7 (Human hepatocarcinoma 7) cells were maintained in 10% FCS-containing DMEM complete media. On the day of the assay, cells were trypsinized (0.1% Trypsin-EDTA), washed and infected for 2 hours in serum-free DMEM with Dengue serotype 2 New Guinea C (NGC) strain at MOI=0.1 with gentle agitation at 37° C. After 2 hours, cells were washed with serum-free media and suspended in 10% FCS-containing DMEM (Gibco, supplemented with sodium pyruvate, NEAA, Penicillin-Streptomycin). 10^5 cells were plated in triplicate in 96-well plates with compounds dispensed at graded doses (Hewlett-Packard D300 Digital Dispenser). All wells were normalized to 0.25% DMSO. At 48 hours, cells were washed with 1× PBS and all supernatants removed. Total RNA was extracted using RNEasy 96 plates (Qiagen) and used to generate first-strand cDNA using XLT cDNA 5× Supermix (QuantaBio). cDNA was used as a template in a Taqman qPCR duplex reaction specific to DENV2 viral and GAPDH gene expression. EC50 values were determined using Prism Graphpad software, with normalization to a positive control and no compound negative control wells.
(In qPCR the cycle at which signal appears reflects the starting amount.)

Series [2] is described as follows: moDC CC50 (CellTiter Glo viability). The format is cell-based, Human. The conditions noted are these: human, uninfected moDCs. The procedure:
Human monocyte-derived dendritic cells (moDCs) were derived from CD14+ monocytes (AllCells) cultured in Human Mo-DC Differentiation medium containing GM-CSF and IL-4 (Miltenyi Biotec). On day 7, moDCs were harvested by mechanical disruption, washed and cultured in triplicate at […] cells/well in 96-well plates with compounds dispensed at graded doses (Hewlett-Packard D300 Digital Dispenser). All wells were normalized to 0.25% DMSO. After 48 hours, CellTiter Glo (Promega) was added and incubated for 10 minutes at room temp before reading on a luminometer. % viability curves were calculated against no compound and no cell control wells. CC50 values were determined using Prism Graphpad software.

In series [3] the test system is RSV strain A2. Description: RSV HEp-2 EC50 (infectious cytopathic cell protection assay). It counts as cell-based, RSV strain A2; HEp-2 cells. The settings on record: human respiratory syncytial virus, HEp-2, 96 h, read-out: RSV Hep-2 EC50. How it is done:
Example 86. RSV HEp-2 EC50
Antiviral activity against RSV is determined using an infectious cytopathic cell protection assay in HEp-2 cells. In this assay, compounds inhibiting viral infection and/or replication produce a cytoprotective effect against the virus-induced cell killing that can be quantified using a cell viability reagent. The techniques used here are novel adaptations of methods described in published literature (Chapman et al., Antimicrob Agents Chemother. 2007, 51(9):3346-53.)
HEp-2 cells are obtained from ATCC (Manassas, VI) and maintained in MEM media supplemented with 10% fetal bovine serum and penicillin/streptomycin. Cells are passaged twice a week and kept at subconfluent stage. Commercial stock of RSV strain A2 (Advanced Biotechnologies, Columbia, MD) is titered before compound testing to determine the appropriate dilution of the virus stock that generates desirable cytopathic effect in HEp-2 cells.
For antiviral tests, HEp-2 cells are grown in large cell culture flasks to near confluency but not fully so. The compounds to be tested are prediluted in DMSO in 384-well compound dilution plates, either in an 8 or 40 sample per plate standardized dose response format. 3-fold serial dilution increments of each test compound are prepared in the plates and test samples are transferred via acoustic transfer apparatus (Echo, Labcyte) at 100 nL per well into cell culture assay 384-well plates. Each compound dilution is transferred in single or quadruplicate samples into dry assay plates, which are stored until assay is ready to go. The positive and negative controls are laid out in opposite on ends of the plate in vertical blocks (1 column).
Subsequently, an infectious mixture is prepared using an appropriate dilution of virus stock previously determined by titration with cells at a density of 50,000/mL and 20 uL/well is added to test plates w/compounds via automation (uFlow, Biotek). Each plate includes negative and positive controls (16 replicates each) to create 0% and 100% virus inhibition standards, respectively. Following the infection with RSV, testing plates are incubated for 4 days in a 37° C. cell culture incubator. After the incubation, a cell viability reagent, Cell TiterGlo (Promega, Madison, WI) is added to the assay plates, which are incubated briefly, and a luminescent readout is measured (Envision, Perkin Elmer) in all the assay plates. The RSV-induced cytopathic effect, percentage inhibition, is determined from the levels of remaining cell viability. […] Various potent anti-RSV tool compounds are used as positive controls for antiviral activity.

Series [4] can be described thus: HEp-2 CC50 (cytotoxicity in uninfected HEp-2 cells). The format is cell-based. The settings on record: human, CellTiter Glo. The procedure: Instead, an uninfected cell mixture at the same density is added at 20 uL/well to plates containing prediluted compounds, also at 100 nL/sample. Assay plates are then incubated for 4 days followed by a cell viability test using the same CellTiter Glo reagent addition and measurement of luminescent readouts. Untreated cell and cells treated at 2 μM puromycin (Sigma, St. Louis, MO) serve as 100% and 0% cell viability control, respectively.

For series [5], the system named is Dengue 2, New Guinea strain (NGC). In words: DENV-2 moDC EC50 (qPCR of viral RNA in infected moDCs). It counts as cell-based, New Guinea strain (NGC); human moDCs. The conditions noted are these: Dengue virus, human moDCs infected with Dengue 2 NGC, MOI=0.1, 48 hours. How it is done: Example 82. DENV-2 moDC EC50
Human monocyte-derived dendritic cells (moDCs) were derived from CD14+ monocytes (AllCells) cultured in Human Mo-DC Differentiation medium containing GM-CSF and IL-4 (Miltenyi Biotec). On day 7, moDCs were harvested by mechanical disruption, washed and suspended in serum-free RPMI. moDCs were infected with Vero-derived Dengue 2, New Guinea strain (NGC) at a MOI=0.1 for two hours in serum-free RPMI with gentle agitation at 37° C. Cells were washed and resuspended in 10% serum-containing RPMI (Gibco, supplemented with sodium pyruvate, NEAA, Penicillin-Streptomycin). […] were plated in triplicate in 96-well plates with compounds dispensed at graded doses (Hewlett-Packard D300 Digital Dispenser). All wells were normalized to 0.25% DMSO. At 48 hours, cells were washed with 1×PBS and all supernatants removed. Total RNA was extracted using RNEasy 96 plates (Qiagen) and used to generate first-strand cDNA using XLT cDNA 5× Supermix (QuantaBio). cDNA was used as a template in a Taqman qPCR duplex reaction specific to DENV2 viral and GAPDH gene expression. EC50 values were determined using Prism Graphpad software, with normalization to a positive control and no compound negative control wells.

Series [6] can be described thus: Huh-7 CC50 (CellTiter Glo viability). It counts as cell-based, Human. The conditions noted are these: human, Huh7 hepatocarcinoma cells. How it is done:
Human hepatocarcinoma 7 (Huh7) cells were maintained in 10% FCS-containing complete DMEM. On day of assay, cells were trypsinized with 0.1% Trypsin-EDTA, washed and cultured in triplicate at 1-2×10^4 cells/well in 96-well plates with compounds dispensed at graded doses (Hewlett-Packard D300 Digital Dispenser). All wells were normalized to 0.25% DMSO. After 48 hours, CellTiter Glo (Promega) was added and incubated for 10 minutes at room temp before reading on a luminometer. % viability curves were calculated against no compound and no cell control wells. CC50 values were determined using Prism Graphpad software.
Background: ATP-based viability assays read luminescence as a measure of living cells.

In the case of `CC(C)OC(=O)[C@H](C)N[P@](=O)(OC[C@@]1(CF)O[C@@H](c2ccc3c(N)ncnn23)[C@H](O)[C@@H]1O)Oc1ccccc1` (single isomer, unassigned) [Example 12], the EC50 is 0.453 µM in series [1], 1.37 µM in series [3] and 0.753 µM in series [5]. In addition, the cytotoxic concentration (CC50) at 48 h in series [2] and in series [6] was more than 25 µM throughout. The compound also gave a CC50 at 4 days in series [4] of more than 100 µM.

For `CCCCCCOC(=O)[C@H](C)N[P@@](=O)(OC[C@@]1(CF)O[C@@H](c2ccc3c(N)ncnn23)[C@H](O)[C@@H]1O)Oc1ccccc1` (single isomer, unassigned) [Example 18], the EC50 in series [1] stood at 0.384 µM; in series [3], 1.3 µM; in series [5], 0.264 µM. Moreover, the CC50 at 48 h is more than 10.5 µM in series [2] and more than 25 µM in series [6]. Besides, the CC50 at 4 days in series [4] was more than 100 µM.

For the compound `CCCCCCOC(=O)[C@H](C)N[P@](=O)(OC[C@@]1(CF)O[C@@H](c2ccc3c(N)ncnn23)[C@H](O)[C@@H]1O)Oc1ccccc1` (single isomer, unassigned) [Example 19], the concentration giving a half-maximal response (EC50) in series [1] worked out at 0.416 µM; in series [3], 0.722 µM; in series [5] it was 0.212 µM. Also, the CC50 at 48 h in series [2] is 10.9 µM; in series [6], more than 25 µM. This compound also had a cytotoxic concentration (CC50) at 4 days in series [4] of more than 97.1 µM.

Regarding `CCC(CC)COC(=O)[C@H](C)N[P@](=O)(OC[C@@]1(CF)O[C@@H](c2ccc3c(=N)n(COP(=O)(O)O)cnn23)[C@H](O)[C@@H]1O)Oc1ccccc1` (single isomer, unassigned) [Example 34], the EC50 was determined as 0.165 µM in series [1] and 0.334 µM in series [5]. In addition, the CC50 at 48 h is 7.66 µM in series [2] and 6.47 µM in series [6].

With `CCCCOC(=O)[C@H](C)N[P@](=O)(OC[C@@]1(CF)O[C@@H](c2ccc3c(N)ncnn23)[C@H](O)[C@@H]1O)Oc1ccccc1` (single isomer, unassigned) [Example 46], the 50% effective concentration (EC50) stood at 0.386 µM in series [1], 0.236 µM in series [3] and 0.158 µM in series [5]. Moreover, the 50% cytotoxic concentration (CC50) at 48 h in series [2] is 3.35 µM; in series [6], 10.2 µM. For the same compound, half-maximal cytotoxicity in series [4] (CC50 at 4 days) was put at 37.1 µM.

For `CCOC(=O)[C@H](C)NP(=O)(OC[C@@]1(CF)O[C@@H](c2ccc3c(N)ncnn23)[C@H](O)[C@@H]1O)Oc1cccc2ccccc12` (stereo partly drawn) [Example 44, ethyl ((((2R,3S,4R,5S)-5-(4-aminopyrrolo[2,1-f][1,2,4]triazin-7-yl)-2-(fluoromethyl)-3,4-dihydroxytetrahydrofuran-2-yl)methoxy)(naphthalen-1-yloxy)phosphoryl)-L-alaninate], the EC50 in series [1] came to 0.191 µM; in series [3], 0.148 µM. It took 26.5 µM to reach half-maximal cytotoxicity in series [4] (CC50 at 4 days). This compound also gave a CC50 at 48 h in series [6] of 17.1 µM.

Consider `C[C@H](NP(=O)(OC[C@@]1(CF)O[C@@H](c2ccc3c(N)ncnn23)[C@H](O)[C@@H]1O)Oc1ccccc1)C(=O)OCC(C)(C)C(F)(F)F` (stereo partly drawn) [Example 53, 3,3,3-trifluoro-2,2-dimethylpropyl ((((2R,3S,4R,5S)-5-(4-aminopyrrolo[2,1-f][1,2,4]triazin-7-yl)-2-(fluoromethyl)-3,4-dihydroxytetrahydrofuran-2-yl)methoxy)(phenoxy)phosphoryl)-L-alaninate], for which the 50% effective concentration (EC50) was determined as 0.419 µM in series [1] and 0.565 µM in series [3]. In series [4], this compound had a CC50 at 4 days of more than 100 µM. The compound further yielded a half-maximal cytotoxic concentration (CC50) at 48 h in series [6] of 19.7 µM.

`CCC(CC)COC(=O)[C@H](C)N[P@](=O)(OC[C@@]1(CF)O[C@@H](c2ccc3c(N)ncnn23)[C@H](OC(C)=O)[C@@H]1OC(C)=O)Oc1ccccc1` [Example 60, (2R,3S,4S,5S)-5-(4-aminopyrrolo[2,1-f][1,2,4]triazin-7-yl)-2-((((S)-(((S)-1-(2-ethylbutoxy)-1-oxopropan-2-yl)amino)(Phenoxy)phosphoryl)oxy)methyl)-2-(fluoromethyl)tetrahydrofuran-3,4-diyl diacetate]: the results for the EC50 in series [1] and in series [3] were 1.21 µM and 1.1 µM, respectively. This compound also registered a CC50 at 4 days in series [4] of 36.2 µM. In series [6], this compound had a CC50 at 48 h of more than 24.8 µM.

Turning to `CCOC(=O)[C@@H](NP(=O)(OC[C@@]1(CF)O[C@@H](c2ccc3c(N)ncnn23)[C@H](O)[C@@H]1O)Oc1ccccc1)C(C)C` (stereo partly drawn) [Example 69, ethyl ((((2R,3S,4R,5S)-5-(4-aminopyrrolo[2,1-f][1,2,4]triazin-7-yl)-2-(fluoromethyl)-3,4-dihydroxytetrahydrofuran-2-yl)methoxy)(phenoxy)phosphoryl)-L-valinate], the values for the EC50 in series [1] and in series [3] were more than 25 µM and more than 50 µM, respectively. This compound had a 50% cytotoxic concentration (CC50) at 4 days in series [4] of more than 50 µM. The compound also registered a cytotoxic concentration (CC50) at 48 h in series [6] of more than 25 µM.

Consider `C[C@H](N[P@](=O)(OC[C@@]1(CF)O[C@@H](c2ccc3c(N)ncnn23)[C@H](O)[C@@H]1O)Oc1ccccc1)C(=O)OC1COC1` [Example 72, oxetan-3-yl ((S)-(((2R,3S,4R,5S)-5-(4-aminopyrrolo[2,1-f][1,2,4]triazin-7-yl)-2-(fluoromethyl)-3,4-dihydroxytetrahydrofuran-2-yl)methoxy)(phenoxy)phosphoryl)-L-alaninate], for which the concentration for a half-maximal effect (EC50) amounted to 12.4 µM in series [1] and 15.6 µM in series [3]. This compound showed a CC50 at 4 days in series [4] of more than 50 µM. The compound further yielded a half-maximal cytotoxic concentration (CC50) at 48 h in series [6] of more than 25 µM.
